In patent EP3928779A1 (Chugai Seiyaku Kabushiki Kaisha, priority 2014, dated 2016):

Tested on: rat small-intestinal brush border membrane vesicles
Test: Inhibitory effect on 33PO4 uptake into rat small-intestinal brush border membrane vesicles (rapid filtration method)
Assay type: biochemical
Settings: 33PO4 uptake into rat small-intestinal BBMVs; test compound 1 µM; reacted for 60 seconds
Method in brief: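 Uptake of ^33PO4 was measured by rapid filtration and liquid scintillation counting of filter-retained vesicles, after quenching with ice-cold 110 mM NaCl/1 mM KH2PO4/10 mM HEPES pH 7.5. Vesicles were brush border membranes from the upper small intestine of female Wistar rats aged 4–5 weeks.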

Compound	Rate of uptake inhibition (%) (1 µM)
COCCOc1cc(NC(=O)C2=C(O)C3(CCCC3)N(C)N(Cc3ccc(OCCN(C)CCOC)c(F)c3F)C2=O)c(-c2ncnc(C(F)(F)F)c2C)cc1C(F)(F)F [Example 439, 7-[[2,3-Difluoro-4-[2-[2-methoxyethyl(methyl)amino]ethoxy]phenyl]methyl]-10-hydroxy-N-[5-(2-methoxyethoxy)-2-[5-methyl-6-(trifluoromethyl)pyrimidin-4-yl]-4-(trifluoromethyl)phenyl]-6-methyl-8-oxo-6,7-diazaspiro[4.5]dec-9-ene-9-carboxamide]	35
COCCN(C)CCOc1c(-c2cccnc2)cc(CN2C(=O)C(C(=O)Nc3ccc(C(F)(F)F)cc3-c3cc(C(F)(F)F)ncn3)=C(O)C3(CCCC3)N2C)c(F)c1F [Example 440, 9-[[2,3-Difluoro-4-[2-[2-methoxyethyl(methyl)amino]ethoxy]-5-(3-pyridinyl)phenyl]methyl]-6-hydroxy-10-methyl-8-oxo-N-[4-(trifluoromethyl)-2-[6-(trifluoromethyl)pyrimidin-4-yl]phenyl]-9,10-diazaspiro[4.5]dec-6-ene-7-carboxamide]	28
CN(C[C@H](O)[C@@H](O)[C@H](O)[C@H](O)CO)C(=O)COCCOCCOCCOCCOc1ccc(CN2C(=O)C(C(=O)Nc3ccc(C(F)(F)F)cc3-c3cc(C(F)(F)F)ncn3)=C(O)C3(CCCC3)N2C)c(F)c1F [Example 441, 7-[[2,3-Difluoro-4-[2-[2-[2-[2-[2-[methyl-[(2S,3R,4R,5R)-2,3,4,5,6-pentahydroxyhexyl]amino]-2-oxoethoxy]ethoxy]ethoxy]ethoxy]ethoxy]phenyl]methyl]-10-hydroxy-6-methyl-8-oxo-N-[4-(trifluoromethyl)-2-[6-(trifluoromethyl)pyrimidin-4-yl]phenyl]-6,7-diazaspiro[4.5]dec-9-ene-9-carboxamide]	22
COCCN(C)CCN(C)c1ccc(CN2C(=O)C(C(=O)Nc3ccc(C(F)(F)F)cc3-c3cc(C(F)(F)F)ncn3)=C(O)C3(CCCC3)N2C)c(F)c1F [Example 442]	24
CCN(CCN(C)CCOC)c1ccc(CN2C(=O)C(C(=O)Nc3ccc(C(F)(F)F)cc3-c3cc(C(F)(F)F)ncn3)=C(O)C3(CCCC3)N2C)c(F)c1F [Example 443]	28
CCCN(CCN(C)CCOC)c1ccc(CN2C(=O)C(C(=O)Nc3ccc(C(F)(F)F)cc3-c3cc(C(F)(F)F)ncn3)=C(O)C3(CCCC3)N2C)c(F)c1F [Example 444]	24
COCCN(C)CCN(c1ccc(CN2C(=O)C(C(=O)Nc3ccc(C(F)(F)F)cc3-c3cc(C(F)(F)F)ncn3)=C(O)C3(CCCC3)N2C)c(F)c1F)C(C)C [Example 445]	29
CN1N(Cc2ccc(NCCCN3CCOCC3)c(F)c2F)C(=O)C(C(=O)Nc2ccc(C(F)(F)F)cc2-c2cc(C(F)(F)F)ncn2)=C(O)C12CCCC2 [Example 446]	31
CN1N(Cc2ccc(NCCN3CCOCC3)c(F)c2F)C(=O)C(C(=O)Nc2ccc(C(F)(F)F)cc2-c2cc(C(F)(F)F)ncn2)=C(O)C12CCCC2 [Example 447]	50
(4aR)-1-[(2,3-Difluorophenyl)methyl]-4-hydroxy-4a-methyl-N-[5-methyl-2-(trifluoromethyl)furan-3-yl]-2-oxo-6,7-dihydro-5H-pyrrolo[1,2-b]pyridazine-3-carboxamide [Example 7]	69
(4aR)-1-[(2,3-Difluorophenyl)methyl]-4-hydroxy-N-[5-methyl-2-(trifluoromethyl)furan-3-yl]-2-oxo-4a-propyl-6,7-dihydro-5H-pyrrolo[1,2-b]pyridazine-3-carboxamide [Example 12]	27
(4aR)-1-[(2,3-Difluorophenyl)methyl]-4a-ethyl-4-hydroxy- N-[5-methyl-2-(trifluoromethyl)furan-3-yl]-2-oxo-6,7-dihydro-5H-pyrrolo[1,2-b]pyridazine-3-carboxamide [Example 10]	37
(4aR)-1-[(3-Fluorophenyl)methyl]-4-hydroxy-4a-methyl-N-[5-methyl-2-(trifluoromethyl)furan-3-yl]-2-oxo-6,7-dihydro-5H-pyrrolo[1,2-b]pyridazine-3-carboxamide [Example 6]	48
(4aR)-1-[(3-Fluorophenyl)methyl]-4-hydroxy-N-[5-methyl-2-(trifluoromethyl)furan-3-yl]-2-oxo-4a-propyl-6,7-dihydro-5H-pyrrolo[1,2-b]pyridazine-3-carboxamide [Example 11]	22
(4aR)-4a-Ethyl-1-[(3-fluorophenyl)methyl]-4-hydroxy-N-[5-methyl-2-(trifluoromethyl)furan-3-yl]-2-oxo-6,7-dihydro-5H-pyrrolo[1,2-b]pyridazine-3-carboxamide [Example 9]	63
(4aR)-N-[2-(6-Cyano-5-methoxypyridin-1-yl)-4-(trifluoromethyl)phenyl]-1-[(2,3-difluorophenyl)methyl]-4-hydroxy-4a-methyl-2-oxo-6,7-dihydro-5H-pyrrolo[1,2-b] pyridazine-3-carboxamide [Example 114]	86
(4aS)-1-[(2,3-Difluorophenyl)methyl]-6,6-difluoro-4-hydroxy-N-[5-methyl-2-(trifluoromethyl)furan-3-yl]-2-oxo-5,7-dihydro-4aH-pyrrolo[1,2-b]pyridazine-3-carboxamide [Example 5]	54
(4aS)-1-[(3-Fluorophenyl)methyl]-4-hydroxy-4a-methyl-N-[5-methyl-2-(trifluoromethyl)furan-3-yl]-2-oxo-6,7-dihydro-5H-pyrrolo[1,2-b]pyridazine-3-carboxamide [Example 8]	37
(4aS)-1-[(3-Fluorophenyl)methyl]-4-hydroxy-N-[5-methyl-2-(trifluoromethyl)furan-3-yl]-2-oxo-5,6,7,8-tetrahydro-4aH-pyrido[1,2-b]pyridazine-3-carboxamide [Example 16]	38
(4aS)-1-[(5,6-Difluoro-1H-indol-7-yl)methyl]-4-hydroxy-N-[5-methyl-2-(trifluoromethyl)furan-3-yl]-2-oxo-5,6,7,8-tetrahydro-4aH-pyrido[1,2-b]pyridazine-3-carboxamide [Example 17]	33
(4aS,5S,8R)-1-(3-Fluorobenzyl)-4-hydroxy-N-(5-methyl-2-(trifluoromethyl)furan-3-yl)-2-oxo-2,4a,5,6,7,8-hexahydro-1H-5,8-methanopyrido[1,2-b]pyridazine-3-carboxamide [Example 20]	21
